# Test results: US7744921B2, “Liposome loading with metal ions” (Celator Pharmaceuticals, Inc., priority 2001, dated 2010)
# “Also recorded” adds a separate entry of the source. Where two headings read alike, the source gives them in different places.
# Tests used:
# [1] = Active (metal-based, citrate or ionophore) loading of drug into liposomes; spin column, drug-to-lipid ratio; assay type: physicochemical
# [2] = as above; assay type: physicochemical; remark: listed apart in the source
# Procedure: Lipids were dissolved in chloroform solution and subsequently dried under a stream of nitrogen gas and placed in a vacuum pump to remove solvent. Unless otherwise specified, trace levels of radioactive lipid 3H-CHE were added to quantify lipid during the formulation process. The resulting lipid film was placed under high vacuum for a minimum of 2 hours. The lipid film was hydrated in the solution indicated to form multilamellar vesicles (MLVs). The resulting preparation was extruded 10 times through stacked polycarbonate filters with an extrusion apparatus (Lipex Biomembranes, Vancouver, BC) to achieve a mean liposome size between 80 and 150 nm. All constituent lipids of liposomes are reported in mole %.
# At various time points after initiation of drug loading, aliquots were removed and passed through a Sephadex G-50 spin column to separate free from encapsulated drug. To a specified volume of eluant, Triton X-100 or N-ocyl beta-D-glucopyranoside (OGP) was added to solubilize the liposomes. Following addition of detergent, the mixture was heated to the cloud point of the detergent and allowed to cool to room temperature before measurement of the absorbance or fluorescence. Drug concentrations were calculated by comparison to a standard curve.
# In order to determine whether copper loading of irinotecan in the absence of a pH gradient could occur using a cholesterol-free formulation, DSPC/DSPG (80:20 mole ratio) liposomes containing copper(II) gluconate were prepared with an external and internal pH of 7.4. […] The lipid films were hydrated in 100 mM Cu(II) gluconate adjusted to pH 7.4 with triethanolamine (TEA) and extruded at 70° C. […] Irinotecan was added to the liposome preparation at a 0.1:1 drug-to-lipid mole ratio and incubated at 50° C. The extent of drug loading was determined as described in the methods by measuring absorbance at 370 nm and lipid levels were determined by liquid scintillation counting.
# Loading of daunorubicin into DSPC/DSPG (90:10 mole ratio) liposomes containing encapsulated CuSO4 buffered to pH 7.4 was also investigated. […] A solution of 150 mM CuSO4, 20 mM histidine (adjusted to pH 7.4 using TEA), was employed as the hydration medium and MLVs were extruded at 70° C. […] Daunorubicin was loaded at a 0.1:1 drug/lipid weight ratio. A drug-to-lipid ratio at various time points during loading was determined by measuring absorbance at 480 nm after solubilization in detergent to quantify daunorubicin as described; lipid levels were determined by liquid scintillation counting.
# The liposomes were prepared as described in the methods by hydrating lipid films in a solution of 100 mM copper(II) gluconate adjusted to pH 7.4 with TEA. Liposomes were extruded at 65° C. and the external buffer of the liposomes was exchanged to SHE, pH 7.4 by tangential flow dialysis. Liposomes were incubated with irinotecan at a 0.1:1 drug-to-lipid weight ratio at 50° C. and the extent of drug loading was determined as described by measuring absorbance at 370 nm after solubilization by detergent.
# In addition to copper loading, loading of drug using MnSO4 containing liposomes in the absence of a pH gradient was also investigated. […] Lipids films were prepared as described and hydrated in 300 mM MnSO4 buffered to pH 7.4 with 20 mM imidazole (initial pH was adjusted to 7.4 with concentrated HCl) and extrusion was carried out at 70° C. The samples were run down a Sephadex G-50 column to exchange the exterior buffer with SHE, pH 7.4.
# [3] = Plasma drug-to-lipid ratio 24 hours after intravenous administration of daunorubicin liposomes; assay type: in vivo; details: DSPC/DSPE-PEG2000 (95:5) liposomes with citrate pH 4.0, CuSO4 or MnSO4; Balb/c mice, lipid 100 mg/kg, daunorubicin 10 mg/kg
# Procedure: DSPC/DSPE-PEG2000 liposomes were prepared as described and extruded at 75° C. The external solution was exchanged to HBS by dialysis against HBS. […] Plasma lipid concentrations were determined by liquid scintillation counting. […] The resulting mixture was mixed and 2 mL of 1:1 isopropanol/chloroform was added followed by vortexing. The samples were frozen at −20° C. overnight or −80° C. for 1 hour to promote protein aggregation, brought to room temperature, vortexed and centrifuged at 3000 rpm for 10 minutes.
compound,measurement,setting,value
COc1cccc2c1C(=O)c1c(O)c3c(c(O)c1C2=O)C[C@@](O)(C(C)=O)C[C@@H]3O[C@H]1C[C@H](N)[C@H](O)[C@H](C)O1 [daunorubicin],drug encapsulation,[1],80%
same,encapsulation,[1],> 95%
same,added drug encapsulated,[2],> 90%
same,encapsulation compared to CuCl2 (in words),[2],not as efficient
same,loading (in words),[2],most efficient; also recorded: occurred to a lesser extent; also recorded: less efficient
same,daunorubicin to lipid ratio achieved,"[2]; DSPC/DSPE-PEG2000 (95:5), 300 mM MnSO4, loading temperature 60° C.",0.07 mol:mol
same,drug encapsulation,"[2]; DSPC/DSPE-PEG2000 (95:5), 300 mM NiSO4, SHE pH 7.4, weight ratio 0.2:1, 60° C., within 5 minutes",greater than 75%
same,loading (in words),[2]; pH 7.4,efficiently load
same,uptake into liposomes,[2]; pH 7.4,100%
same,plasma drug-to-lipid ratio 24 hours after intravenous administration (in words),[3],differing plasma drug-to-lipid ratios
